Assay results as given in PubChem BioAssay (NCI).
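Following 48 hours of exposure in 96-well plates, responses at five concentrations were used to interpolate endpoints linearly. Here, GI50 denotes the concentration required for 50% inhibition of growth. TGI is the concentration that stops growth completely.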

Legend:
Test in all cases: growth of human tumour cells (NCI), 48 h
SW-620 colon = system: SW-620 colon
OVCAR-3 ovarian = system: OVCAR-3 ovarian
TK-10 renal = system: TK-10 renal
SR leukemia = system: SR leukemia
LOX IMVI melanoma = system: LOX IMVI melanoma
NCI-H522 lung = system: NCI-H522 lung
COLO 205 colon = system: COLO 205 colon
SK-MEL-5 melanoma = system: SK-MEL-5 melanoma
SK-MEL-2 melanoma = system: SK-MEL-2 melanoma
MCF7 breast = system: MCF7 breast

Structure (SMILES)	TGI (SW-620 colon) [µM]	TGI (OVCAR-3 ovarian) [µM]	TGI (TK-10 renal) [µM]	TGI (SR leukemia) [µM]	TGI (LOX IMVI melanoma) [µM]	TGI (NCI-H522 lung) [µM]	TGI (COLO 205 colon) [µM]	TGI (SK-MEL-5 melanoma) [µM]	TGI (SK-MEL-2 melanoma) [µM]	GI50 (SW-620 colon) [µM]	GI50 (OVCAR-3 ovarian) [µM]	GI50 (TK-10 renal) [µM]	GI50 (SK-MEL-2 melanoma) [µM]	GI50 (LOX IMVI melanoma) [µM]	GI50 (NCI-H522 lung) [µM]	GI50 (COLO 205 colon) [µM]	GI50 (SK-MEL-5 melanoma) [µM]	GI50 (MCF7 breast) [µM]	TGI (MCF7 breast) [µM]	GI50 (SR leukemia) [µM]
CC1=C2CC[C@@]3(C)C(=CCC3O)C2(C)CCC1=O (some centres not stated)	> 100	> 100	> 100	> 100	> 100	> 100	> 100	> 100	–	–	–	–	–	–	–	–	–	–	–	–
OC1CC(O)O[C@H](c2ccccc2)C1 (some centres not stated)	> 100	> 100	> 100	> 100	> 100	–	> 100	> 100	–	–	–	–	–	–	–	–	–	–	–	–
Cc1[nH]c(=O)n2c(C)nnc2c1C(=O)O	> 100	> 100	> 100	> 100	> 100	> 100	> 100	–	> 100	–	–	–	–	–	–	–	–	–	–	–
CC[O-].CC[O-].O=C1C=C([O-])C(=O)c2ccccc21.O=C1C=C([O-])C(=O)c2ccccc21.[Ti+4]	> 100	> 100	> 100	–	> 100	> 100	> 59.8	55.9	> 100	90.5	> 100	> 67.7	9.89	5.25	> 40.1	24	3.07	–	–	–
C[C@@H](NC1CCCC[C@@H]1O)c1ccccc1 (some centres not stated)	> 100	> 100	> 100	–	> 100	–	> 100	> 100	> 100	–	–	–	–	–	–	–	–	–	–	–
OC1(C(Sc2ccccc2)Sc2ccccc2)CCCCCC1	> 100	45.7	> 100	67	40	40.7	57.8	29.6	41.2	–	–	–	–	–	–	–	–	–	–	–
COc1ccc2c(c1)OCC1c3cc(OC)c4ccccc4c3OC21 (configuration not stated)	> 100	4.08	53.9	16.6	> 100	–	33.1	24.2	77.7	3.98	1.5	11.8	12.2	16.5	–	7.98	5.11	3.59	> 100	3.89
CC(=O)Oc1ccc2c(=O)c(C(C)=O)coc2c1	> 100	> 100	> 100	> 100	> 100	> 100	> 100	> 100	> 100	–	–	–	–	–	–	–	–	–	–	–
O=S(=O)(NCCNc1nccc(-c2c(-c3ccc(F)cc3)nc3sccn23)n1)c1ccc(O)cc1	41.8	–	26.3	21.5	49.6	19.2	14.8	10.7	17.3	4.47	–	4.81	4.18	1.88	3.51	2	1.39	0.476	14.4	1.82
CC(C)n1cc(-c2ccc3c(c2)N(C)CC3)c2c(NS(=O)(=O)c3ccn(C)n3)ccnc21	> 100	> 100	> 100	–	> 100	> 100	> 100	> 100	> 100	69.7	60.4	> 100	56.6	47.8	49.3	> 100	37.4	31.5	> 100	–
O=C1NC(c2ccc3ccccc3c2)Nc2ccccc21 (configuration not stated)	> 100	–	> 100	> 100	> 100	–	> 100	> 100	> 100	–	–	–	–	–	–	–	–	–	> 100	–
CCCCCc1cc(/C=C2/N=C(c3ccc[nH]3)C=C2OC)[nH]c1C	0.206	0.469	1.29	–	–	0.209	0.0483	0.0422	–	–	–	–	–	–	–	–	–	–	0.0988	–
CNC(=O)/C=C/C1=CN2C(=O)c3ccc(C)c(O)c3NC(OC)C2C1 (configuration not stated)	24.4	0.417	–	0.0598	4.19	< 0.0169	< 0.0202	0.186	< 0.01	–	–	–	–	–	–	–	–	–	16.6	–
CO/N=C(/C)COc1ccc2c(c1)oc(=O)c1cc(OC)ccc12	> 100	> 100	> 100	–	> 100	> 100	> 100	> 100	> 100	> 100	> 100	> 100	> 100	> 100	> 100	> 100	> 100	> 100	> 100	–
O=C(O)C1=Cc2cccc3cccc(c23)C1=O	> 100	> 100	> 100	> 100	> 100	> 100	> 100	> 100	> 100	–	–	–	–	–	–	–	–	–	–	–
COC(=O)c1cc(O)ccc1O	> 100	> 100	> 100	–	> 100	> 100	> 100	> 100	> 100	–	–	–	–	–	–	–	–	–	–	–
Cc1cc(S(=O)(=O)Nc2nc3ccccc3c(=O)n2Cc2ccco2)c(S)cc1Cl	> 100	> 100	> 100	40.7	59.3	> 100	> 100	> 100	–	30.7	30.5	35	–	26.1	37.4	> 100	22.8	41.5	> 100	19.5
CCCCCCCCCN=C(N)c1ccc(N2CCN(c3ccc(C(N)=NCCCCCCCCC)cc3)CC2)cc1	3.55	3.83	14.7	> 50	10.7	21.4	7.94	–	> 50	1.52	1.1	4.3	2.88	2.1	2.36	1.78	–	0.704	1.54	2.75
CC(=O)OC(C(=O)[O][Ge]([CH3])([CH3])[CH3])c1ccccc1 (configuration not stated)	> 100	> 100	> 100	–	> 100	> 100	> 100	> 100	–	> 100	> 100	> 100	–	> 100	> 100	> 100	> 100	–	–	–
